The values below come from patent publication US10300070B2, “Metabolically-activated drug conjugates to overcome resistance in cancer therapy” (The Brigham and Women's Hospital, Inc., priority 2014, dated 2019).

Assay [1] deals with MDA-MB-231 cells. Put plainly: Single cell, real-time assessment of mitochondrial ROS (MitoSox). It is filed as cell-based. The note with it: docetaxel 50 nM. As to the method: Single cell analysis was performed as follows: Mitosox Red (Invitrogen, Carlsbad Calif.) was incubated with live parent cells for 30 minutes (5 μM), washed and recovered in phenol red-free DMEM with 2% FBS and treated with docetaxel (50 nM). Equivalent exposure times of immunofluorescent microscopy were used at each interval which was originally set at time 0 against an unstained control cell population. Images were captured by a NIKON Eclipse TI-U microscope with a 20× ELDW or 10× or 40× Plan-Apo objective lens (Nikon, Melville N.Y.) and NIS Elements Viewer version 3.22 (Nikon, Melville N.Y.) imaging software. A negative control (non-transfected) cell subset was used to normalize background and autofluorescence following docetaxel treatment. Individual cells were tracked over time and indications of cell death were noted using a 2 TdT-Fluor In Situ apoptosis detection kit (Trevigen Gaithersburg Md.). Cells were plotted as a function of apoptosis induction (or loss of adherence to culture dish indicating cell death) and changes in Mitosox fluorescence over time as shown in main figures.

For assay [2], the system named is residual tumor tissue. In words: Total intratumoral GSH in residual tumor of syngeneic mammary carcinoma. The note with it: DTX 10 mg/kg i.v., vs vehicle control cohorts. It is filed as in vivo, mice. As to the method: G) Total intratumoral GSH obtained from residual tumor tissue homogenate of a syngeneic mammary carcinoma treated with vehicle or DTX (10 mg/kg i.v.). N=4 groups, ***p<0.001.
In vitro detection of glucose uptake was performed using 2-(N-7-Nitrobenz-2-oxa-1,3-diazol-4-yl)Amino)-2-Deoxyglucose (2-NBDG) (Invitrogen, Carlsbad Calif.), dissolved in DMSO to 50 mM. Cells were pre-treated with kinase inhibitors or vehicle for 3 hours in glucose- and phenol red-free media before addition of 50 μM 2-NBDG and subsequently read by FACS ex/em 488/535 nm. ROS was determined by pre-loading cells with CM-DCFDA (1 μM), washed 2 times with PBS and subsequently treated with H2O2 or vehicle; when kinase inhibitors were included in treatment, cells were first incubated with inhibitor for 3 hours prior to CM-DCFDA loading. Fluorescence was then determined by FACS ex/em 488/535 nm. For the following assays, cells were trypsinized and counted by Nexcelom cell counter (Lawrence, Mass.) prior to being subjected to analysis in order to achieve a quantitative value per cell: Reduced glutathione was determined using a colorimetric glutathione recycling system by DTNB following manufacturer protocol (Biovision, Milpitas Calif.). […] Protein synthesis was measured by two means 1. […] Fluorescence was detected by FACS as described below. […] GFP protein translation was determined by fluorescent microscopy. […]

Assay [3] has as its system tumor tissue. In words: Whole tissue glucose levels from tumor homogenate after intratumoral injection. The note with it: docetaxel intratumoral injection, within 12 hours post-administration. The assay is classed as in vivo, mice. As to the method: 1 million 4T-1 mouse mammary carcinoma cells suspended in 100 μL PBS were injected per left flank of 5-6 week old Balb/C (heterotopic) or mammary fat pad (orthotopic). Docetaxel (DTX) was dissolved in pure Ethanol at a concentration of 50 mg/ml mixed 1:1 with Polysorbate 80 (Tween 80) and brought to a final working concentration with PBS. Tumor volumes were assessed by the following formula: (Width×Width×length)/2 and values were utilized to calculate tumor specific growth rate (SGR) by the algorhythm (ln [V2/V1]/[t2−t1)] where V=volume and t=time in days^64. For in vivo analysis of 2-NBDG uptake, mice were treated as indicated (i.e. Docetaxel intratumoral or intravenously) and monitored until tumors reached ˜300 mm^3. Subsequently, mice were administered a 10 mg/kg i.v. injection of 2-NBDG 2 hours prior to sacrificing and harvesting tumors for confocal microscopic analysis by frozen section (described below). […] Glucose quantitation (mg/dL) was measured using the onetouch lifescan glucose monitor (Life Scan, Inc. Militipas, Calif.) by calculating mg of glucose per volume of tissue homogenate (in PBS) and normalized as a ratio of mg/dL of glucose to mg of tissue homogenized. Typically, >250 mg of tissue was homogenized in 50 μL of PBS to achieve a readable output.

The structures appear in SMILES notation.

As for `CC(=O)O[C@@]12CO[C@@H]1C[C@H](O)[C@@]1(C)C(=O)[C@H](O)C3=C(C)[C@@H](OC(=O)[C@H](O)[C@@H](NC(=O)OC(C)(C)C)c4ccccc4)C[C@@](O)([C@@H](OC(=O)c4ccccc4)[C@H]21)C3(C)C` [docetaxel], the “time of mitochondrial ROS burst in cells which survive” value in assay [1] was 4 to 8 h. The “whole cell GSH in residual tumor” value in assay [2] is listed as “significant global increase”. Further, the “whole tissue glucose levels in tumor” value in assay [3] was “significantly higher”.
